Test [1] has as its target T1, Adenosine receptor A2a (Homo sapiens, UniProt P29274). Nature of the test: Displacement of [3H]ZM241385 from wild type human adenosine receptor A2a expressed in HEK293 cells.
Test [2] addresses T1, Adenosine receptor A2a. Nature of the test: Displacement of [3H]ZM241385 from stabilized human adenosine receptor A2a expressed in HEK293 cells followed by receptor capturing on Biocore chips by SPR method.

T1 sequence (P29274 whole entry, looked up): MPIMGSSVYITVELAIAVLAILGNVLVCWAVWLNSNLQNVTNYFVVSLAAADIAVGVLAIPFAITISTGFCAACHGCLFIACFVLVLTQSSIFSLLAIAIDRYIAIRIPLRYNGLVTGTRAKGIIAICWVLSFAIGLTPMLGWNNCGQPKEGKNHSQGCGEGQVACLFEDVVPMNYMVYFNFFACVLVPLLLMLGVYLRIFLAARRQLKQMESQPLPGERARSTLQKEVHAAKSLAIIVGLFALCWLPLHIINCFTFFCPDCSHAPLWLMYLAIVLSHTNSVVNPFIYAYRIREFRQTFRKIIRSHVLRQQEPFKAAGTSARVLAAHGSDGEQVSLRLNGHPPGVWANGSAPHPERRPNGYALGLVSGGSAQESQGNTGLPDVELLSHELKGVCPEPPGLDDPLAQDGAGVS

For the molecule `CN1CCN(C(=O)c2cccc(-c3nc(N)nc(-c4ccccc4O)n3)c2)CC1`, the pKi at Adenosine receptor A2a [1] is given as 9. Besides, the negative-log Kd (pKd) on Adenosine receptor A2a [2] is given as 7.9.
For `Nc1nc(-c2ccccc2O)nc(N2Cc3ccc(F)cc3C2)n1` the same measures were 7.9 and 6.
For `COCCOc1ccc(N2CCN(CCn3ncc4c3nc(N)n3nc(-c5ccco5)nc43)CC2)cc1` [PRELADENANT] the same measures were 8.8 and 9.5.

The values are drawn from ChEMBL document CHEMBL1800001, “Biophysical mapping of the adenosine A2A receptor” (J Med Chem, 2011).
